Columns and labels:
UACC-62 = test: NCI 60 growth inhibition; assay type: cell-based, human; conditions: Homo sapiens; UACC-62, Melanoma, Table 2
Procedure: (§1) The above triazole derivatives of melampomagnolide B were evaluated for growth inhibitory properties against an NCI panel of 60 human cancer cell lines derived from nine human cancer cell types, grouped into disease sub-panels that represent leukemia, lung, colon, central nervous system (CNS), melanoma, renal, ovary, breast, and prostate cancer cells. Growth inhibitory (GI50) effects were measured as a function of the variation of optical density as a percentage of control.

SK-OV-3 = test: NCI 60 growth inhibition; assay type: cell-based, human; conditions: Homo sapiens; SK-OV-3, Ovarian Cancer, Table 2
Procedure: as §1

NCI-H460 = test: NCI 60 growth inhibition; assay type: cell-based, human; conditions: Homo sapiens; NCI-H460, Non-Small Cell Lung Cancer, Table 2
Procedure: as §1

IGROV1 = test: NCI 60 growth inhibition; assay type: cell-based, human; conditions: Homo sapiens, IGROV-1; IGROV1, Ovarian Cancer, Table 2
Procedure: as §1

NCI/ADR-RES = test: NCI 60 growth inhibition; assay type: cell-based, human; conditions: Homo sapiens, Ovarian Cancer, Table 2
Procedure: as §1

SF-539 = test: NCI 60 growth inhibition; assay type: cell-based, human; conditions: Homo sapiens; SF-539, CNS Cancer, Table 2
Procedure: as §1

SW-620 = test: NCI 60 growth inhibition; assay type: cell-based, human; conditions: Homo sapiens; SW-620, Colon Cancer, Table 2
Procedure: as §1

ACHN = test: NCI 60 growth inhibition; assay type: cell-based, human; conditions: Homo sapiens, Renal Cancer, Table 2
Procedure: as §1

MDA-MB-468 = test: NCI 60 growth inhibition; assay type: cell-based, human; conditions: Homo sapiens; MDA-MB-468, Breast Cancer, Table 2
Procedure: as §1

HCC-2998 = test: NCI 60 growth inhibition; assay type: cell-based, human; conditions: Homo sapiens; HCC-2998, Colon Cancer, Table 2
Procedure: as §1

M14 = test: NCI 60 growth inhibition; assay type: cell-based, human; conditions: Homo sapiens; M14, Melanoma, Table 2
Procedure: as §1

LOX IMVI = test: NCI 60 growth inhibition; assay type: cell-based, human; conditions: Homo sapiens, Melanoma, Table 2
Procedure: as §1

MALME-3M = test: NCI 60 growth inhibition; assay type: cell-based, human; conditions: Homo sapiens, Melanoma, Table 2
Procedure: as §1

786-0 = test: NCI 60 growth inhibition; assay type: cell-based, human; conditions: Homo sapiens; 786-0, Renal Cancer, Table 2
Procedure: as §1

PC-3 = test: NCI 60 growth inhibition; assay type: cell-based, human; conditions: Homo sapiens; PC-3, Prostate Cancer, Table 2
Procedure: as §1

NCI-H522 = test: NCI 60 growth inhibition; assay type: cell-based, human; conditions: Homo sapiens; NCI-H522, Non-Small Cell Lung Cancer, Table 2
Procedure: as §1

MDA-MB-435 = test: NCI 60 growth inhibition; assay type: cell-based, human; conditions: Homo sapiens; MDA-MB-435, Melanoma, Table 2
Procedure: as §1

MCF7 = test: NCI 60 growth inhibition; assay type: cell-based, human; conditions: Homo sapiens; MCF7, Breast Cancer, Table 2
Procedure: as §1

SF-268 = test: NCI 60 growth inhibition; assay type: cell-based, human; conditions: Homo sapiens; SF-268, CNS Cancer, Table 2
Procedure: as §1

U251 = test: NCI 60 growth inhibition; assay type: cell-based, human; conditions: Homo sapiens, U-251; U251, CNS Cancer, Table 2
Procedure: as §1

HS 578T = test: NCI 60 growth inhibition; assay type: cell-based, human; conditions: Homo sapiens, Breast Cancer, Table 2
Procedure: as §1

DU-145 = test: NCI 60 growth inhibition; assay type: cell-based, human; conditions: Homo sapiens; DU-145, Prostate Cancer, Table 2
Procedure: as §1

RPMI-8226 = test: NCI 60 growth inhibition; assay type: cell-based, human; conditions: Homo sapiens; RPMI-8226, Leukemia, Table 2
Procedure: as §1

MOLT-4 = test: NCI 60 growth inhibition; assay type: cell-based, human; conditions: Homo sapiens; MOLT-4, Leukemia, Table 2
Procedure: as §1

NCI-H226 = test: NCI 60 growth inhibition; assay type: cell-based, human; conditions: Homo sapiens; NCI-H226, Non-Small Cell Lung Cancer, Table 2
Procedure: as §1

SNB-19 = test: NCI 60 growth inhibition; assay type: cell-based, human; conditions: Homo sapiens; SNB-19, CNS Cancer, Table 2
Procedure: as §1

SK-MEL-5 = test: NCI 60 growth inhibition; assay type: cell-based, human; conditions: Homo sapiens; SK-MEL-5, Melanoma, Table 2
Procedure: as §1

HCT-15 = test: NCI 60 growth inhibition; assay type: cell-based, human; conditions: Homo sapiens; HCT-15, Colon Cancer, Table 2
Procedure: as §1

HL-60(TB) = test: NCI 60 growth inhibition; assay type: cell-based, human; conditions: Homo sapiens; HL-60(TB), Leukemia, Table 2
Procedure: as §1

K-562 = test: NCI 60 growth inhibition; assay type: cell-based, human; conditions: Homo sapiens, K562; K-562, Leukemia, Table 2
Procedure: as §1

HCT-116 = test: NCI 60 growth inhibition; assay type: cell-based, human; conditions: Homo sapiens; HCT-116, Colon Cancer, Table 2
Procedure: as §1

SR = test: NCI 60 growth inhibition; assay type: cell-based, human; conditions: Homo sapiens, Leukemia, Table 2
Procedure: as §1

SK-MEL-2 = test: NCI 60 growth inhibition; assay type: cell-based, human; conditions: Homo sapiens; SK-MEL-2, Melanoma, Table 2
Procedure: as §1

MDA-MB-231/ATCC = test: NCI 60 growth inhibition; assay type: cell-based, human; conditions: Homo sapiens, Breast Cancer, Table 2
Procedure: as §1

SN12C = test: NCI 60 growth inhibition; assay type: cell-based, human; conditions: Homo sapiens, Renal Cancer, Table 2
Procedure: as §1

CAKI-1 = test: NCI 60 growth inhibition; assay type: cell-based, human; conditions: Homo sapiens; CAKI-1, Renal Cancer, Table 2
Procedure: as §1

UO-31 = test: NCI 60 growth inhibition; assay type: cell-based, human; conditions: Homo sapiens; UO-31, Renal Cancer, Table 2
Procedure: as §1

M9 ENL1 cell line = test: Anti-leukemic activity, Annexin V/7-AAD flow cytometry; assay type: cell-based; conditions: M9-ENL1, 24 h, 24 h of drug exposure; read-out: M9ENL1 (EC50)
Procedure: The newly synthesized triazole derivatives of melampomagnolide B were screened for anti-leukemic activity against M9 ENL1 and primary AML cell lines; the latter were obtained with informed consent from human patients. Evaluations were performed after 24 h of drug exposure using flow cytometric analysis by labeling with Annexin V and 7-aminoactinomycin D (7-AAD) to delineate apoptotic cell populations. In all experiments PTL was included as a reference control.

Row | Structure (SMILES) | GI50 (UACC-62) | GI50 (SK-OV-3) | GI50 (NCI-H460) | GI50 (IGROV1) | GI50 (NCI/ADR-RES) | GI50 (SF-539) | GI50 (SW-620) | GI50 (ACHN) | GI50 (MDA-MB-468) | GI50 (HCC-2998) | GI50 (M14) | GI50 (LOX IMVI) | GI50 (MALME-3M) | GI50 (786-0) | GI50 (PC-3) | GI50 (NCI-H522) | GI50 (MDA-MB-435) | GI50 (MCF7) | GI50 (SF-268) | GI50 (U251) | also measured
1 | C=C1C(=O)O[C@H]2[C@H]1CC/C(Cn1cc(-c3ccccc3)nn1)=C\CC[C@@]1(C)O[C@@H]21 [JVM 3-74, (1aR,7aS,10aS,10bS,E)-1a-Methyl-8-methylene-5-((4-phenyl-1H-1,2,3-triazol-1-yl)methyl)-2,3,6,7,7a,8,10a,10b-octahydrooxireno[2′,3′:9,10]cyclodeca[1,2-b]furan-9(1aH)-one] | 1870 nM | 9950 nM | 7740 nM | 6950 nM | 6170 nM | 2010 nM | 1500 nM | 940 nM | 950 nM | 6160 nM | 1780 nM | 800 nM | 1170 nM | 2630 nM | 5650 nM | 810 nM | 2370 nM | 1080 nM | 5630 nM | 7960 nM | GI50 (HS 578T): 9780 nM; GI50 (DU-145): 2190 nM; GI50 (RPMI-8226): 1710 nM; GI50 (MOLT-4): 1290 nM; GI50 (NCI-H226): 4600 nM; GI50 (SNB-19): 7870 nM; GI50 (SK-MEL-5): 7320 nM; GI50 (HCT-15): 770 nM; GI50 (HL-60(TB)): 1490 nM; GI50 (K-562): 1760 nM; GI50 (HCT-116): 1170 nM; GI50 (SR): 1060 nM; GI50 (SK-MEL-2): 5500 nM; GI50 (MDA-MB-231/ATCC): 2000 nM; GI50 (SN12C): 4500 nM; GI50 (CAKI-1): 1280 nM; GI50 (UO-31): 870 nM; EC50 (M9 ENL1 cell line): 1900 nM
2 | C=C1C(=O)O[C@H]2[C@H]1CC/C(Cn1cc(-c3cccc(Cl)c3)nn1)=C\CC[C@@]1(C)O[C@@H]21 [JVM 4-25, (1aR,7aS,10aS,10bS,E)-5((4-(3-Chlorophenyl)-1H-1,2,3-triazol-1-yl)methyl)-1a-methyl-8-methylene-2,3,6,7,7a,8,10a,10b-octahydrooxireno[2′,3′:9,10]cyclodeca[1,2-b]furan-9(1aH)-one] | 620 nM | 3670 nM | 2130 nM | 730 nM | 2390 nM | 250 nM | 330 nM | 180 nM | 560 nM | 1640 nM | 790 nM | 280 nM | 1200 nM | 500 nM | 1980 nM | 290 nM | 590 nM | 310 nM | 1590 nM | 1610 nM | GI50 (HS 578T): 2260 nM; GI50 (DU-145): 1000 nM; GI50 (RPMI-8226): 500 nM; GI50 (MOLT-4): 310 nM; GI50 (NCI-H226): 1710 nM; GI50 (SNB-19): 2400 nM; GI50 (SK-MEL-5): 1700 nM; GI50 (HCT-15): 190 nM; GI50 (HL-60(TB)): 330 nM; GI50 (K-562): 400 nM; GI50 (HCT-116): 160 nM; GI50 (SR): 230 nM; GI50 (SK-MEL-2): 1660 nM; GI50 (MDA-MB-231/ATCC): 1090 nM; GI50 (SN12C): 1400 nM; GI50 (CAKI-1): 860 nM; GI50 (UO-31): 1080 nM

Reference: US10428082B2, “Triazole derivatives of melampomagnolide B and methods of use thereof” (BioVentures, LLC, priority 2016, dated 2019)
